Laboratory results reported in ChEMBL document CHEMBL1681782, “A novel alkaloid, aristopyridinone A and anti-inflammatory phenanthrenes isolated from Aristolochia manshuriensis” (Bioorg Med Chem Lett, 2011).
Values after ≈ are worked out from the molar mass of the structure shown.

Assays:
Neutrophil [1] = test: Ratio of Genistein IC50 to compound IC50 for inhibition of fMLP/CB-induced elastase release in human neutrophils; assay type: functional
[2] = Antiinflammatory activity in human neutrophils assessed as inhibition of fMLP/CB-induced elastase release after 5 mins; assay type: functional, cell-based; conditions: Neutrophil
[3] = Antiinflammatory activity in human neutrophils assessed as inhibition of fMLP/CB-induced superoxide anion generation after 5 mins; assay type: functional, cell-based; conditions: Neutrophil
Neutrophil [4] = test: Ratio of Genistein IC50 to compound IC50 for inhibition of fMLP/CB-induced superoxide anion generation in human neutrophils; assay type: functional

Compound	IC50 [2] [µg/mL]	IC50 [3] [µg/mL]	Ratio IC50 (Neutrophil [1])	Ratio IC50 (Neutrophil [4])
COC(=O)c1cc2c(c3c1c([N+](=O)[O-])cc1c(OC)cccc13)OCO2	> 10	> 10	–	–
COC(=O)c1cc2c(c3c1ccc1c(OC)cc(OC)cc13)OCO2 [ARISTOLIC ACID METHYL ESTER]	> 10	> 10	–	–
O=C(O)c1cc2c(c3c1c([N+](=O)[O-])cc1ccc(O)cc13)OCO2 [ARISTOLOCHIC ACID C]	> 10	> 10	–	–
COc1cccc2c1cc([N+](=O)[O-])c1c(C(=O)O)cc3c(c12)OCO3 [ARISTOLOCHIC ACID]	> 10	> 10	–	–
COc1cc(O)cc2c1cc([N+](=O)[O-])c1c(C(=O)O)cc3c(c12)OCO3 [ARISTOLOCHIC D]	8.49 (≈ 23.8 µM)	5.78 (≈ 16.2 µM)	–	–
COC(=O)c1cc2c(c3c1ccc1c(OC)cccc13)OCO2 [METHYL ARISTOLATE]	> 10	> 10	–	–

Second part, led by results:

IC50 [2] [µg/mL]	IC50 [3] [µg/mL]	Compound	Ratio IC50 (Neutrophil [1])	Ratio IC50 (Neutrophil [4])
0.2 (≈ 0.716 µM)	0.12 (≈ 0.43 µM)	O=C1Nc2cc3ccc(O)cc3c3c4c(cc1c23)OCO4	35	4.5
4.11 (≈ 15.5 µM)	> 10	NC(=O)c1cc2c(c3c1ccc1ccccc13)OCO2 [ARISTOLAMIDE II]	–	–
> 10	> 10	COc1cccc2c1ccc1c(C(N)=O)cc3c(c12)OCO3 [ARISTOLAMIDE]	–	–
6.99 (≈ 25.9 µM)	0.54 (≈ 2 µM)	O=c1c(-c2ccc(O)cc2)coc2cc(O)cc(O)c12 [GENISTEIN]	–	–
